Columns and labels:
[1] = system: de novo lipogenesis (DNL); details: obese subjects, 6 g HCA/day for 5 days; cited from earlier work
[2] = system: de novo lipogenesis (DNL); experiment: Decrease of de novo lipogenesis in rats (literature); assay type: in vivo; details: extrapolated from rats
From the text: Dosages of various HCA compositions found to be effective are quite large, indeed beyond the normal range for pharmaceutical products, with efficacy that is highly variable. […] A later study found a significant, yet limited effect after 7 days of a diet designed specifically to induce de novo lipogenesis in humans. (Physiol Behay. 2006 Jul. 30; 88(4-5):371-81). See also, Nutr Metab (Lond). 2005 Sep. 13; 2:23.

[3] = Conductivity of solutions (electrical conductivity, HACH Conductivity/TDS meter); assay type: physicochemical
From the text: The structure of the subject compounds (e.g., as described herein) can be deduced using a conductance meter to observe the extent of dissociate of the first and/or second metals from the compounds. In an experiment described below equimolar samples and comparative electrolyte conductance to K-acetate solution as a standard, data may be obtained which is characteristic of electrolyte binary conductants. […] The KMgHCA solution in water may have a pH 8-10 depending on the concentration. Under this condition, the heterocyclic anion formed will tend toward a stable form rather than an ionizable one.
Several experiments investigating the electrical conductivities of solutions of KMgHCA, KZnHCA and KMnHCA were performed. The equipment used was HACH Conductivity/TDS meter, P/N=4460-00.
Materials: KMgHCA.4H2O, KZnHCA.2H2O, KMnHCA.2H2O were prepared using methods described herein. KC2H3O2 and […] was obtained from Merck. H2O used was demineralized water.
General procedure: All the HCA compounds and Acetate were weighed and placed in a volumetric flask and dissolved with demineralized water to one liter solution and then they were tested the conductivity (EC).

[4] = system: Osteoporosis; experiment: Example 14: comparison of KCaHCA and/or KMgHCA compositions, single subject; assay type: in vivo, human; details: for symptoms of osteoporosis: 200 mg 3 times a day after meals; for subject's condition during the regimen: 200 mg doses 3 times a day, sequential regimens in the same subject after 3 months of the blend
Method: • Subject: (cited as Example 12, above) • • Problem: Osteoporosis Treatment: Materials were consumed 3 times a day after meals. • Experiment 1. Blending 150 mg KMgHCA.8H2O+50 mg KCaHCA.3H2O • A 200 mg mixture of KCaHCA (25%) and KMgHCA (75%) prepared according to the subject methods was used. The actual percentage of calcium was (40/338)×25%=2.96%. Since KCaHCA.3H2O was used the percentage of magnesium in the composition was (24/412)×75%=4.37%. Since KMgHCA.8H2O was used, the ratio Ca:Mg=0.15:0.36 in mmol. • Experiment 2. 200 mg KMgHCA.8H2O • Experiment 3.

[5] = system: osteoporosis and calcification on hand and leg; experiment: Example 13: comparison of different bimetal regimes (KMg vs. KCa vs. combination), two subjects; assay type: in vivo, human; parameters: key to Treatment performance: + +: very good performance; + −: good but slight complaint
Method: Subject I: a person, 40 kg (cited in Example 11, above)
Subject II: a person; 72 kg
• Treatment: A. Mixture 25% KCa HCA+75% KMg HCA bimetals (100-200 mg) • B. Only KMg HCA bimetal Results: […]

[6] = cited from earlier work
[7] = 0.3 mmol/l in demineralized water, no additive

For O=C(O)CC(O)(C(=O)O)C(O)C(=O)O (stereo not drawn) [HCA, Hydroxycitric acid], which “inhibition of DNL / promotion of fatty acid oxidation” value [1] is on record?
Its value is “failed to inhibit DNL”.

What about the “effective dose extrapolated to a 70 kg human being” value [2] of the same molecule?
The value was “approximately 4.5 g/day”.

For CC(=O)[O-].[K+] [KC2H3O2, K-acetate, reference compound], which “E. C (μS/cm)” value [3, 7] is on record?
The value was 56.06 μS/cm.

For O=C([O-])C[C@@](O)(C(=O)[O-])[C@H](O)C(=O)[O-].[Ca+2].[K+] [KCaHCA], which symptoms of osteoporosis [4] is on record?
The symptoms of osteoporosis was “not effective”.

What about the “subject's condition during the regimen” value [4] of the same molecule?
The value was “unable to move their leg”.

With O=C1CC(O)(C(O)C(=O)[O-])C(=O)[O][Mg][O]1.[K+] (stereo not drawn) [KMgHCA, Potassium Magnesium Bimetal HCA Compound] as the molecule, how does the symptoms of osteoporosis [4] read?
The symptoms of osteoporosis was “partial improvement”.

What about the “subject's condition during the regimen” value [4] of the same molecule?
The value was “slight difficult to walk because feeling of burning sensation in their feet”.

And the “κ value contribution of Mg—O bond (half of the 2 bond contribution)” value ([3]; 0.3 mmol/l)?
The value was 2.095 μS/cm.

What about the “E. C (μS/cm)” value [3, 7] of the same molecule?
Its value is 60.25 μS/cm.

What about the “E. C (μS/cm)” value ([3]; 0.3 mmol/l, additive 10 mg gliserol) of the same molecule?
The value was 60.23 μS/cm.

And the “E. C (μS/cm)” value ([3]; 0.3 mmol/l, additive 10 mg glucose)?
The value was 60.29 μS/cm.

And the “2 bond of Mg—O contribution to κ value” ([3]; run 2 minus run 1 (60.25-56.06))?
The value was about 4.19 μS/cm.

What about the Treatment performance ([5]; Patient II (72 kg)) of the same molecule?
Its Treatment performance is “+ −”.

And the “observed result following treatment” value ([5]; Subject II)?
Its value is “could stand on their feet”.

And the reduction of symptoms ([5]; Subject II)?
Its reduction of symptoms is “partial reduction of symptoms”.

For O=C1CC(O)(C(O)C(=O)[O][Mg][O]C(=O)C(O)C2(O)CC(=O)[O][Mg][O]C2=O)C(=O)[O][Mg][O]1 (stereo not drawn) [Mg3(HCA)2•2H2O, reference compound], which “E. C (μS/cm)” value ([3]; 0.1 mmol/l in demineralized water (equimolar in Mg2+ to run 8)) is on record?
Its value is 31.2 μS/cm.

For CC(=O)[O-].CC(=O)[O-].O.O.O.O.[Mg+2] [Mg(CH3COO)2•4H2O, reference compound], which “E. C (μS/cm)” value [3, 7] is on record?
Its value is 32.3 μS/cm.

Which pKa [6] does the source give for O=C(O)CO [glycolic acid] here?
The pKa was “approx 3.83”.

— US11066423B2, “Monomeric bimetal hydroxycitric acid compounds and methods of making and using the same” (GLYKON TECHNOLOGIES GROUP, LLC, priority 2016, dated 2021)
